Laboratory results taken from US20180251431A1 (VERTEX PHARMACEUTICALS INCORPORATED, priority 2016, published 2018).
Read-outs that look alike come from different tables or passages of the source.

System: HEK293 cells
Test: HEK293 VLCFA-LPC IC50 determination (13C-labeled C26:0 LPC by UHPLC/MS)
Type: cell-based, human
Conditions: Homo sapiens, average of one or more replicates, read-out: Average HEK293 IC50
Protocol: HEK293 cells were treated with compounds, such as those listed in Tables A-E of Example 1, using the representative manual protocols described below. The protocols below were also adapted to a semi-automated protocol using standard methods in the art.
Cell Culture Growth Conditions:
HEK293 cells were maintained in FreeStyle F17 media (Gibco # A13835) supplemented with PenStrep (1%, Gibco #15070-063), Glutamax (2%, Gibco #35050-061), and Pluronic (0.1%, Gibco #24040-032) (“supplemented media”). Suspension cultures were grown in disposable Erlenmeyer flasks at about 120 rpm, 37° C., 5% CO2, and 80% humidity. Cell densities were kept between about 0.5 and 3 million cells per mL, in about 50-200 mL per flask.
Treatment of Cells with Compounds Provided Herein:
The cells were treated with compounds using either a total of 900 uL cell media volume (high-volume assay) or a total of 200 uL cell media volume (low-volume assay). In the high volume assay, 450 μL of supplemented media plus 13C-acetate (1.0 mg/mL, Sigma Aldrich #282014) were added to 0.5 μL of a compound (such as those in Tables A-E) in DMSO in a polypropylene v-bottom plate (Costar #3363) in 1 of 3 dilution schemes. The contents of each well were mixed and transferred to a sterile polypropylene deep-well v-bottom plate (Costar #3960). 450 μL of cultured HEK293 cells in supplemented media at a density of 1.0 million cells/mL was added to each well. In the low volume assay, 100 μL of supplemented media plus 13C-acetate (1.0 mg/mL, Sigma Aldrich #282014) were added to either 0.1 μL or 1.0 uL of a compound (such as those in Tables A-E) in DMSO in a polypropylene v-bottom plate (Costar #3363) in 1 of 3 dilution schemes. 100 μL of cultured HEK293 cells in supplemented media at a density of 1.0 million cells/mL was added to each well. The high volume and low volume plates were sealed with either AirPore Tape Sheets (Qiagen #19571) or Duetz plate covers to control evaporation and placed into a shaking incubator at 225 rpm, 37° C., 5% CO2, and 80% humidity for 48 hours. For both the high and low volume assays the 3 dilution schemes used were as follows:
Following incubation, treated cells were harvested by centrifugation at 1690×g for 10 minutes. In the high volume assay 200 uL treated cells were transferred to a polypropylene v-bottom plate (Costar #3363) prior to centrifugation. In the low volume assay the incubation plate was centrifuged directly, without a transfer step. The supernatant was then discarded and the analytes were extracted using 1 of 2 different extraction schemes. In the first scheme, the cell pellet was visibly broken up by mixing the cell pellet up and down in 100 μL of hexane/isopropanol (60:40) 20 times. The resulting mixture was transferred to a 0.45 μm Durapore membrane (Millipore #MSH VN4510) atop a polypropylene v-bottom plate (Costar #3363) and filtered by centrifugation at 1690×g for 5 minutes. 120 μL of n-butanol containing 10 nM C13:0 lysophosphatidylcholine was added to the filtrate as an injection control standard, then the entire volume was transferred to a new Durapore membrane/v-bottom plate. In the second scheme, the cell pellet was visibly broken up by mixing the cell pellet up and down in 180 μL of methanol containing 10 nM C13:0 lysophosphatidylcholine 20 times. The resulting mixture was transferred to a 0.45 μm Durapore membrane (Millipore #MSH VN4510) atop a polypropylene v-bottom plate and filtered by centrifugation at 1690×g for 5 minutes. In both schemes, the plates were then sealed with pierceable capmats (Micronic MP53017) and stored at −20 OC until analyzed.
UHPLC/Mass Spectrometry Readout:
The filtered organic extraction was analyzed with a 1290 Agilent Infinity Series UHPLC coupled to an ABI Sciex QTrap 6500 mass spectrometer. […]

[1] = HEK293, 48 h, 13C-labeled C26:0 LPC, 48 hours

Row | SMILES | IC50 (HEK293, HEK293 cells) [nM] | IC50 [1] [nM]
1 | O=C(Nc1ccn(-c2ccc(F)cc2)n1)C1(c2ccc(F)cn2)CC1 [Compound 488, N-[1-(4-fluorophenyl)pyrazol-3-yl]-1-(5-fluoro-2-pyridyl)cyclopropanecarboxamide] | 510 | 
2 | O=C(Nc1ccn(-c2ccccc2)n1)C1(c2ccccc2)CC1(F)F (racemic) [Compound 143, 2,2-difluoro-1-phenyl-N-(1-phenyl-1H-pyrazol-3-yl)cyclopropane-1-carboxamide] | 140 | 
3 | Cc1cc(NC(=O)C2(c3ncccc3F)CC2C)nn1-c1ccc(F)cc1F (centres unmarked) [Compound 507, N-[1-(2,4-difluorophenyl)-5-methyl-pyrazol-3-yl]-1-(3-fluoro-2-pyridyl)-2-methyl-cyclopropanecarboxamide] | > 5000 | 
4 | O=C(Nc1ccn(-c2ccccc2)n1)C1(c2ccccc2F)CC1 [Compound 22, 1-(2-fluorophenyl)-N-(1-phenylpyrazol-3-yl)cyclopropanecarboxamide] | 12 | 
5 | O=C(Nc1ccn(-c2ccnc(F)c2)n1)C1(c2ccccc2)CC(F)(F)C1 [Compound 172, 3,3-difluoro-N-[1-(2-fluoro-4-pyridyl)pyrazol-3-yl]-1-phenyl-cyclobutanecarboxamide] | 380 | 
6 | O=C(Nc1ccn(-c2cc(F)cc(F)c2)n1)C1(c2ncccn2)CC1 [Compound 534, N-[1-(3,5-difluorophenyl)pyrazol-3-yl]-1-pyrimidin-2-yl-cyclopropanecarboxamide] | > 5000 | 
7 | CN(C)c1ccc(-n2ccc(NC(=O)C3(c4ccccc4F)CC3)n2)cn1 [Compound 394, N-[1-[6-(dimethylamino)-3-pyridyl]pyrazol-3-yl]-1-(2-fluorophenyl)cyclopropanecarboxamide] | > 5000 | 
8 | O=C(Cc1ccccc1)Nc1ccn(-c2cncc(F)c2)n1 [Compound 205, N-[1-(5-fluoro-3-pyridyl)pyrazol-3-yl]-2-phenyl-acetamide] | 720 | 
9 | O=C(Nc1ccn(-c2cncc(C(F)(F)F)c2)n1)C1(c2ccccc2F)CC1 [Compound 316, 1-(2-fluorophenyl)-N-[1-[5-(trifluoromethyl)-3-pyridyl]pyrazol-3-yl]cyclopropanecarboxamide] |  | > 5000
10 | O=C(Cc1ccc(F)cc1F)Nc1ccn(-c2ccccc2)n1 [Compound 18, 2-(2,4-difluorophenyl)-N-(1-phenylpyrazol-3-yl)acetamide] | 260 | 
11 | O=C(Nc1ccn(-c2ccnc(F)c2)n1)C(c1ccccc1)C1CC1 (centres unmarked) [Compound 175, 2-cyclopropyl-N-[1-(2-fluoro-4-pyridyl)pyrazol-3-yl]-2-phenyl-acetamide] | 520 | 
12 | Nc1cc(-n2ccc(NC(=O)C3(c4ccccc4F)CC3)n2)ccc1F [Compound 385, N-[1-(3-amino-4-fluoro-phenyl)pyrazol-3-yl]-1-(2-fluorophenyl)cyclopropanecarboxamide] |  | 1400
13 | O=C(Cc1ccccc1)Nc1ccn(-c2cccc(C(F)(F)F)c2)n1 [Compound 157, 2-phenyl-N-[1-[3-(trifluoromethyl)phenyl]pyrazol-3-yl]acetamide] | > 5000 | 
14 | O=C(Cn1cccn1)Nc1ccn(-c2ccnc(F)c2)n1 [Compound 283, N-[1-(2-fluoro-4-pyridyl)pyrazol-3-yl]-2-pyrazol-1-yl-acetamide] | > 5000 | 
15 | O=C(Cc1c(F)cccc1F)Nc1ccn(-c2ccccc2)n1 [Compound 61, 2-(2,6-difluorophenyl)-N-(1-phenylpyrazol-3-yl)acetamide] | 65 | 
16 | O=C(Nc1ccn(-c2ccc(Cl)nc2)n1)C1(c2ccccc2F)CC1 [Compound 107, N-[1-(6-chloro-3-pyridyl)pyrazol-3-yl]-1-(2-fluorophenyl)cyclopropanecarboxamide] | 84 | 

Row | SMILES | IC50 (HEK293, HEK293 cells) [nM] | IC50 [1] [nM]
17 | O=C(Nc1ccn(-c2cc(F)cc(F)c2)n1)C1(c2ncccc2F)CC12CC2 (centres unmarked) [Compound 524, N-[1-(3,5-difluorophenyl)pyrazol-3-yl]-2-(3-fluoro-2-pyridyl)spiro[2.2]pentane-2-carboxamide] | 1500 | 
18 | O=C(Cc1ccccc1F)Nc1ccn(-c2ccnc(C(F)(F)F)c2)n1 [Compound 122, 2-(2-fluorophenyl)-N-[1-[2-(trifluoromethyl)-4-pyridyl]pyrazol-3-yl]acetamide] | 1600 | 
19 | O=C(Nc1ccn(-c2ccc(C(F)(F)F)cc2)n1)C1(c2ccccc2F)CC1 [Compound 154, 1-(2-fluorophenyl)-N-[1-[4-(trifluoromethyl)phenyl]pyrazol-3-yl]cyclopropanecarboxamide] | 360 | 
20 | Cc1nn(C)cc1-n1ccc(NC(=O)C2(c3ccccc3F)CC2)n1 [Compound 403, N-[1-(1,3-dimethylpyrazol-4-yl)pyrazol-3-yl]-1-(2-fluorophenyl)cyclopropanecarboxamide] |  | > 5000
21 | O=C(Cc1ccc(O)c(F)c1)Nc1ccn(-c2ccccc2)n1 [Compound 56, 2-(3-fluoro-4-hydroxy-phenyl)-N-(1-phenylpyrazol-3-yl)acetamide] | > 5000 | 
22 | O=C(Cc1cccc(C(F)(F)F)c1)Nc1ccn(-c2ccccc2)n1 [Compound 51, N-(1-phenylpyrazol-3-yl)-2-[3-(trifluoromethyl)phenyl]acetamide] | > 2000 | 
23 | CC(C)(C(=O)Nc1ccn(-c2ccccc2)n1)c1ccccn1 [Compound 476, 2-methyl-N-(1-phenylpyrazol-3-yl)-2-(2-pyridyl)propanamide] | 530 | 
24 | O=C(Nc1ccn(-c2cccnn2)n1)C1(c2ccccc2F)CC1 [Compound 239, 1-(2-fluorophenyl)-N-(1-pyridazin-3-ylpyrazol-3-yl)cyclopropanecarboxamide] | 300 | 
25 | O=C(Nc1ccn(-c2ccc(F)c(Cl)c2)n1)C1(c2ccccc2F)CC1 [Compound 198, N-[1-(3-chloro-4-fluoro-phenyl)pyrazol-3-yl]-1-(2-fluorophenyl)cyclopropanecarboxamide] | 720 | 
26 | O=C(Nc1ccn(-c2ccc(F)c(F)c2)n1)C1(c2cnccn2)CC1 [Compound 492, N-[1-(3,4-difluorophenyl)pyrazol-3-yl]-1-pyrazin-2-yl-cyclopropanecarboxamide] | > 5000 | 
27 | O=C(Nc1ccn(-c2ccncc2)n1)C1(c2ncccc2F)CC1 [Compound 422, 1-(3-fluoro-2-pyridyl)-N-[1-(4-pyridyl)pyrazol-3-yl]cyclopropanecarboxamide] | 200 | 
28 | O=C(Cc1ccc(F)cc1)Nc1ccn(-c2ccc(Cl)nc2)n1 [Compound 105, N-[1-(6-chloro-3-pyridyl)pyrazol-3-yl]-2-(4-fluorophenyl)acetamide] | > 5000 | 
29 | O=C(Nc1ccn(-c2cncc(F)c2)n1)C1(c2ccccc2F)CC1 [Compound 180, 1-(2-fluorophenyl)-N-[1-(5-fluoro-3-pyridyl)pyrazol-3-yl]cyclopropanecarboxamide] | 20 | 
30 | COc1ncccc1-n1ccc(NC(=O)C2(c3ccccc3F)CC2)n1 [Compound 317, 1-(2-fluorophenyl)-N-[1-(2-methoxy-3-pyridyl)pyrazol-3-yl]cyclopropanecarboxamide] |  | > 5000
31 | O=C(Nc1nn(-c2cncc(F)c2)cc1F)C1(c2ccccc2)CC1 [Compound 445, N-[4-fluoro-1-(5-fluoro-3-pyridyl)pyrazol-3-yl]-1-phenyl-cyclopropanecarboxamide] |  | 1400
32 | O=C(Nc1ccn(-c2ccccc2)n1)C1(c2cccc(Cl)c2)CC1 [Compound 19, 1-(3-chlorophenyl)-N-(1-phenylpyrazol-3-yl)cyclopropanecarboxamide] | 250 | 
